In patent US20260137819A1 (Radionetics Oncology, Inc., priority 2022, published 2026):
Starred links: 1 amine or outer side, 2 acyl side, 3 side chain; linkers in the order of their positions; H or OH if unused. Non-standard residues stand in square brackets, D forms with d. Residues, ends and D or L forms follow the SMILES beside them. Groups on a side chain read outwards from the residue. *: point of attachment. X1 = COc1cc2c(cc1-c1cccc(N*)c1)-c1c(c(C(=O)N3CCOCC3(C)C)nn1-c1cc(Cl)cc(Cl)c1)CO2; DOTA = O=C(O)CN1CCN(CC(=O)O)CCN(CC(=O)*)CCN(CC(=O)O)CC1; Suc = O=C(CCC(=O)[*:2])[*:1]

Target: T1, human follicle-stimulating hormone receptor (FSHR) (Homo sapiens, UniProt P23945)
T1 construct: host or cells: CHO-K1
T1 sequence (P23945 18-695): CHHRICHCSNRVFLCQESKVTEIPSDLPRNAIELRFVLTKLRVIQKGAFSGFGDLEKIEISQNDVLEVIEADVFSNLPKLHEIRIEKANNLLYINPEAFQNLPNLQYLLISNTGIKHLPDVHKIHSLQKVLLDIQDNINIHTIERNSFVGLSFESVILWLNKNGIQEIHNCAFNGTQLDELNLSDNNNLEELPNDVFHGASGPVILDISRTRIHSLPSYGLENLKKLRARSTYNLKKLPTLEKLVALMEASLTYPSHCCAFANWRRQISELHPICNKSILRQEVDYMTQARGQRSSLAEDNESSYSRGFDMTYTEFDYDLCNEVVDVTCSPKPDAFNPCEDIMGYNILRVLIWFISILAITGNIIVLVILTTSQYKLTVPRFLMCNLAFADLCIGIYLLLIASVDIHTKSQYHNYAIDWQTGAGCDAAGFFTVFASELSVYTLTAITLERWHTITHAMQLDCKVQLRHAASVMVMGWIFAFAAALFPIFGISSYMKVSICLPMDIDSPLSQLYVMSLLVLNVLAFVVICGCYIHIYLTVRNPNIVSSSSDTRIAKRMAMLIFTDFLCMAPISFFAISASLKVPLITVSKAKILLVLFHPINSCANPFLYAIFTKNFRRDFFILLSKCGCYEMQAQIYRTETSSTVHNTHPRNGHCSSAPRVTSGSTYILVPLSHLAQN
Experiment: Measurement of agonist cAMP production by activation of human FSHR
Type: cell-based
Settings: CHO-K1 human FSHR cells, 30 minutes at 37° C., HTRF cAMP kit; read-out: hFSHR Agonist cAMP EC50
In short: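 cAMP output was measured by HTRF after 30 min at 37 °C agonist exposure (0–10,000 nM final) in stably FSHR-transfected CHO-K1 cells. Lysate cAMP was read off a standard curve and fitted to obtain half-maximal EC50.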

EC50 [nM]	Compound
10 to 100	COc1cc2c(cc1-c1cccc(NC(=O)CCC(=O)NCCCC[C@@H](NC(=O)[C@@H](CCC(=O)O)NC(=O)[C@@H](CCCNC(=N)N)NC(=O)[C@@H](C)NC(=O)CN3CCN(CC(=O)O)CCN(CC(=O)O)CCN(CC(=O)O)CC3)C(=O)N[C@H](CCCNC(=N)N)C(=O)N[C@H](CCC(=O)O)C(=O)N[C@H](C)C(N)=O)c1)-c1c(c(C(=O)N3CCOCC3(C)C)nn1-c1cc(Cl)cc(Cl)c1)CO2 [Compound 83, 2,2′,2″-(10-((4R,7R,10R,13R,16R,19R,22R)-23-amino-10,19-bis(2carboxyethyl)-13-(4-(4-((3-(1-(3,5-dichlorophenyl)-3-(3,3-dimethylmorpholine-4-carbonyl)-7-methoxy-1,4-dihydrochromeno|4,3-c|pyrazol-8-yl)phenyl)amino)-4-oxobutanamido)butyl)-7,16-bis(3-guanidinopropyl)-4,22-dimethyl-2,5,8,11,14,17,20,23-octaoxo-3,6,9,12,15,18,21-heptaazatricosyl)-1,4,7,10-tetraazacyclododecane-1,4,7-triyl)triacetic acid] ({DOTA}-[dA][dR][dE][dK]([Suc-X1])[dR][dE][dA]-NH2)
10 to 100	COc1cc2c(cc1-c1cccc(NC(=O)CCC(=O)NCCCC[C@@H](NC(=O)[C@@H](CCC(=O)O)NC(=O)[C@@H](CCCNC(=N)N)NC(=O)[C@@H](CCC(=O)O)NC(=O)[C@@H](CCCNC(=N)N)NC(=O)[C@@H](C)NC(=O)CN3CCN(CC(=O)O)CCN(CC(=O)O)CCN(CC(=O)O)CC3)C(=O)N[C@H](C)C(N)=O)c1)-c1c(c(C(=O)N3CCOCC3(C)C)nn1-c1cc(Cl)cc(Cl)c1)CO2 [Compound 84, 2,2′,2″-(10-((4R,7R,10R,13R,16R,19R)-19-(((R)-1-amino-1-oxopropan-2yl)carbamoyl)-10,16-bis(2-carboxyethyl)-28-((3-(1-(3,5-dichlorophenyl)-3-(3,3-dimethylmorpholine-4-carbonyl)-7-methoxy-1,4-dihydrochromeno|4,3-clpyrazol-8-yl)phenyl)amino)-7,13-bis(3-guanidinopropyl)-4-methyl-2,5,8,11,14,17,25,28-octaoxo-3,6,9,12,15,18,24-heptaazaoctacosyl)-1,4,7,10-tetraazacyclododecane-1,4,7-triyl)triacetic acid] ({DOTA}-[dA][dR][dE][dR][dE][dK]([Suc-X1])[dA]-NH2)
10 to 100	COc1cc2c(cc1-c1cccc(NC(=O)CCC(=O)NCCCC[C@@H](NC(=O)[C@@H](CO)NC(=O)[C@@H](CC(N)=O)NC(=O)[C@@H](CO)NC(=O)[C@@H](CC(N)=O)NC(=O)[C@@H](C)NC(=O)CN3CCN(CC(=O)O)CCN(CC(=O)O)CCN(CC(=O)O)CC3)C(=O)N[C@H](C)C(N)=O)c1)-c1c(c(C(=O)N3CCOCC3(C)C)nn1-c1cc(Cl)cc(Cl)c1)CO2 [Compound 85] ({DOTA}-[dA][dN][dS][dN][dS][dK]([Suc-X1])[dA]-NH2)
10 to 100	COc1cc2c(cc1-c1cccc(NC(=O)CCC(=O)NCCCC[C@@H](NC(=O)[C@@H](C)NC(=O)[C@@H](CCC(=O)O)NC(=O)[C@@H](C)NC(=O)CN3CCN(CC(=O)O)CCN(CC(=O)O)CCN(CC(=O)O)CC3)C(=O)N[C@H](C)C(=O)N[C@H](CCC(=O)O)C(=O)N[C@H](C)C(N)=O)c1)-c1c(c(C(=O)N3CCOCC3(C)C)nn1-c1cc(Cl)cc(Cl)c1)CO2 [Compound 86, (4R,7R,10R,13R,16R)-4-(((R)-1-amino-1-oxopropan-2-yl)carbamoyl)-10-(4-(4((3-(1-(3,5-dichlorophenyl)-3-(3,3-dimethylmorpholine-4-carbonyl)-7-methoxy-1,4-dihydrochromeno|4,3-clpyrazol-8-yl)phenyl)amino)-4-oxobutanamido)butyl)-7,13-dimethyl-6,9,12,15-tetraoxo-16-((R)-2-(2-(4,7,10-tris(carboxymethyl)-1,4,7,10-tetraazacyclododecan-1-yl)acetamido)propanamido)-5,8,11,14-tetraazanonadecanedioic acid] ({DOTA}-[dA][dE][dA][dK]([Suc-X1])[dA][dE][dA]-NH2)
10 to 100	COc1cc2c(cc1-c1cccc(NC(=O)CCC(=O)NCCCC[C@@H](NC(=O)[C@@H](C)NC(=O)CN3CCN(CC(=O)O)CCN(CC(=O)O)CCN(CC(=O)O)CC3)C(=O)N[C@H](CCC(=O)O)C(=O)N[C@H](CCC(=O)O)C(=O)N[C@H](CCC(=O)O)C(=O)N[C@H](CCC(=O)O)C(=O)N[C@H](C)C(N)=O)c1)-c1c(c(C(=O)N3CCOCC3(C)C)nn1-c1cc(Cl)cc(Cl)c1)CO2 [Compound 87, 2,2′,2″-(10-((4R,7R,10R,13R,16R,19R,22R)-23-amino-10,13,16,19-tetrakis(2carboxyethyl)-7-(4-(4-((3-(1-(3,5-dichlorophenyl)-3-(3,3-dimethylmorpholine-4-carbonyl)-7-methoxy-1,4-dihydrochromeno|4,3-c|pyrazol-8-yl)phenyl)amino)-4-oxobutanamido)butyl)-4,22-dimethyl-2,5,8,11,14,17,20,23-octaoxo-3,6,9,12,15,18,21-heptaazatricosyl)-1,4,7,10-tetraazacyclododecane-1,4,7-triyl)triacetic acid] ({DOTA}-[dA][dK]([Suc-X1])[dE][dE][dE][dE][dA]-NH2)
10 to 100	COc1cc2c(cc1-c1cccc(NC(=O)CCC(=O)NCCCC[C@@H](NC(=O)[C@@H](CCC(=O)O)NC(=O)[C@@H](CCC(=O)O)NC(=O)[C@@H](C)NC(=O)CN3CCN(CC(=O)O)CCN(CC(=O)O)CCN(CC(=O)O)CC3)C(=O)N[C@H](CCC(=O)O)C(=O)N[C@H](CCC(=O)O)C(=O)N[C@H](C)C(N)=O)c1)-c1c(c(C(=O)N3CCOCC3(C)C)nn1-c1cc(Cl)cc(Cl)c1)CO2 [Compound 88] ({DOTA}-[dA][dE][dE][dK]([Suc-X1])[dE][dE][dA]-NH2)
10 to 100	COc1cc2c(cc1-c1cccc(NC(=O)CCC(=O)NCCCC[C@@H](NC(=O)[C@@H](CCC(=O)O)NC(=O)[C@@H](CCCNC(=N)N)NC(=O)[C@@H](C)NC(=O)CN3CCN(CC(=O)O)CCN(CC(=O)O)CCN(CC(=O)O)CC3)C(=O)N[C@H](CCCNC(=N)N)C(=O)N[C@H](CCCNC(=N)N)C(=O)N[C@H](C)C(N)=O)c1)-c1c(c(C(=O)N3CCOCC3(C)C)nn1-c1cc(Cl)cc(Cl)c1)CO2 [Compound 89] ({DOTA}-[dA][dR][dE][dK]([Suc-X1])[dR][dR][dA]-NH2)
10 to 100	COc1cc2c(cc1-c1cccc(NC(=O)CCC(=O)NCCCC[C@@H](NC(=O)[C@@H](CCC(=O)O)NC(=O)[C@@H](CCC(=O)O)NC(=O)[C@@H](CCC(=O)O)NC(=O)[C@@H](CCC(=O)O)NC(=O)[C@@H](C)NC(=O)CN3CCN(CC(=O)O)CCN(CC(=O)O)CCN(CC(=O)O)CC3)C(=O)N[C@H](C)C(N)=O)c1)-c1c(c(C(=O)N3CCOCC3(C)C)nn1-c1cc(Cl)cc(Cl)c1)CO2 [Compound 90, 2,2′,2″-(10-((4R,7R,10R,13R,16R,19R)-19-(((R)-1-amino-1-oxopropan-2yl)carbamoyl)-7,10,13,16-tetrakis(2-carboxyethyl)-28-((3-(1-(3,5-dichlorophenyl)-3-(3,3-dimethylmorpholine-4-carbonyl)-7-methoxy-1,4-dihydrochromeno|4,3-clpyrazol-8-yl)phenyl)amino)-4-methyl-2,5,8,11,14,17,25,28-octaoxo-3,6,9,12,15,18,24-heptaazaoctacosyl)-1,4,7,10-tetraazacyclododecane-1,4,7-triyl)triacetic acid] ({DOTA}-[dA][dE][dE][dE][dE][dK]([Suc-X1])[dA]-NH2)
10 to 100	COc1cc2c(cc1-c1cccc(NC(=O)CCC(=O)NCCCC[C@@H](NC(=O)[C@@H](C)NC(=O)[C@@H](C)NC(=O)[C@@H](CC(N)=O)NC(=O)[C@@H](CC(=O)O)NC(=O)[C@@H](CCCNC(=N)N)NC(=O)[C@@H](C)NC(=O)CN3CCN(CC(=O)O)CCN(CC(=O)O)CCN(CC(=O)O)CC3)C(N)=O)c1)-c1c(c(C(=O)N3CCOCC3(C)C)nn1-c1cc(Cl)cc(Cl)c1)CO2 [Compound 91] ({DOTA}-[dA][dR][dD][dN][dA][dA][dK]([Suc-X1])-NH2)
10 to 100	COc1cc2c(cc1-c1cccc(NC(=O)CCC(=O)N[C@H](C)C(=O)N[C@H](CCC(=O)O)C(=O)N[C@H](CCC(=O)O)C(=O)N[C@H](CCC(=O)O)C(=O)N[C@H](CCC(=O)O)C(=O)N[C@H](CCCCNC(=O)CN3CCN(CC(=O)O)CCN(CC(=O)O)CCN(CC(=O)O)CC3)C(=O)N[C@H](C)C(N)=O)c1)-c1c(c(C(=O)N3CCOCC3(C)C)nn1-c1cc(Cl)cc(Cl)c1)CO2 [Compound 92, 2,2′,2″-(10-((8R,11R,14R,17R,20R,23R)-8-(((R)-1-amino-1-oxopropan-2yl)carbamoyl)-11,14,17,20-tetrakis(2-carboxyethyl)-28-((3-(1-(3,5-dichlorophenyl)-3-(3,3-dimethylmorpholine-4-carbonyl)-7-methoxy-1,4-dihydrochromeno[4,3-c]pyrazol-8-yl)phenyl)amino)-23-methyl-2,10,13,16,19,22,25,28-octaoxo-3,9,12,15,18,21,24-heptaazaoctacosyl)-1,4,7,10-tetraazacyclododecane-1,4,7-triyl)triacetic acid] ({X1-Suc}-[dA][dE][dE][dE][dE][dK](DOTA)[dA]-NH2)
